The values that follow come from publication PMC9694494, “Resveratrol/Hydrazone Hybrids: Synthesis and Chemopreventive Activity against Colorectal Cancer Cells” (Pharmaceutics, 2022).

Assay [1] deals with SW620 cells. The experiment in a line: Antiproliferative activity (SRB, 2-8 days), SW620. It is filed as cell-based. The settings on record: Homo sapiens, read-out: Viability (%) ± SE; for viability at 3 µM: SW620, 3 µM; for viability at 6 µM: SW620, 6 µM; for viability at 12 µM: SW620, 12 µM; for viability at 24 µM: SW620, 24 µM; for viability at 48 µM: SW620, 48 µM. As to the method:
The procedure for evaluating the antiproliferative activity was carried out using the same colorimetric test (SRB) described for cell viability, with minor modifications. Briefly, 2500 cells/well were seeded in 96-well tissue culture plates and incubated as in the previously described conditions for 0, 2, 4, 6, and 8 days. […] The culture medium was changed every 48 h. After each incubation time, cells were fixed, stained, and read as previously described for this technique.

Assay [2] deals with SW620 cells. The experiment in a line: Cell cycle analysis (PI flow cytometry), SW620. It counts as cell-based, human. The conditions noted are these: SW620, 48 h treatment. As to the method: Cell staining with the fluorescent propidium iodide (PI) was used to measure cell cycle distribution. The assays were carried out following the previous methodology described by Nicoletti et al. (1991). Briefly, 2.5 × 10^5 cells/well were seeded in 6-well tissue culture plates at 37 °C and 5% CO2. After 24 h of adherence, cells were treated during 48 h with hybrids 6e and 7, together with the vehicle control. At the end of each treatment, cells were scraped, and the centrifuged pellet was resuspended in 1.8 mL of 70% ethanol at 4 °C to fix the cells overnight. Then, after centrifugation, cells were washed twice in versene buffer to completely remove the alcohol, besides, they were further resuspended in 300 µL of PBS containing 0.25 mg/mL RNAse (Type I-A, Sigma-Aldrich, Darmstadt, Germany) and 0.1 mg/mL PI. After the incubation in the dark (for 30 min at room temperature), 10,000 events were analyzed with a FACS Canto II flow cytometer and the software BD FACS Diva 6.1.3. (BD Biosciences, San Jose, CA, USA). The PI fluorescence signal was analyzed with excitation at 488 nm (using a Sapphire laser), and detection at 610 nm. The cell cycle model was fixed with FlowJo 7.6.2 (Ashland, OR, USA), applying the Dean-Jett-Fox model.
(In flow cytometry, cells or beads pass a laser one at a time.)

The subject of another assay is SW480 cells. The experiment in a line: Cell death induction (Annexin-V/FITC and PI flow cytometry), SW480. It is filed as cell-based, human. The settings on record: SW480, 48 h exposure. How it is done:
(§1) Flow cytometric analysis using a double fluorescent staining with Annexin-V/FITC and propidium iodide (Roche Diagnostics) was used to evaluate phosphatidylserine exposure and membrane damage. Colon cancer cells (SW480 and SW620) were seeded at 2.5 × 10^5 in each 6-well plate and treated for 48 h. […] At the end of each treatment, cells were scraped and centrifuged. The pellet was resuspended in versene buffer with the fluorescent dyes and incubated for 20 min in darkness. Data were analyzed with FlowJo 7.6.2 (Ashland, OR, USA). Cells with double-positive staining for Annexin-V and PI were considered late apoptotic or dead cells, while the single staining with Annexin-V/FITC (Annexin-V/FITC positive) or propidium iodide (PI positive) was considered for early apoptotic or necrotic cells, respectively. Assays were performed twice.

Assay [3] concerns SW620 cells. The experiment in a line: Cell death induction (Annexin-V/FITC and PI flow cytometry), SW620. The settings on record: SW620, 48 h exposure. It is filed as cell-based, human. How it is done: as §1
Where [4] appears, read: SW-620, 48 h, 2 days after plating.
[5] abbreviates: SW-620, 96 h, 4 days after plating.
Where [6] appears, read: SW-620, 144 h, 6 days after plating.
Where [7] appears, read: SW-620, 192 h, 8 days after plating.

For orientation: viability means a per cent measure of how many cells are alive, often set against a control.

Where two headings read alike, the source gives them in different places.

With `O=C(N/N=C/c1c(O)cc(O)cc1/C=C/c1ccc(O)cc1)c1ccncc1` [compound 7, N′-((E)-2,4-dihydroxy-6-((E)-4-hydroxystyryl)benzylidene)isonicotinohydrazide], in the assay with SW620 cells [1] (setting [4]), the viability at 3 µM was 89.3 ± 1.65%, the viability at 6 µM stood at 88 ± 2.48%, the viability at 12 µM stood at 67.82 ± 0.4% and the viability at 24 µM worked out at 45.21 ± 0.38%. In the assay on SW620 cells [1] (setting [4]), the viability at 48 µM worked out at 41.5 ± 3.3%. Moreover, in the assay with SW620 cells [1] (setting [5]), the viability at 3 µM stood at 87.29 ± 0.75%, the viability at 6 µM is 72.4 ± 0.9%, the viability at 12 µM amounted to 33 ± 1.8% and the viability at 24 µM is 27.8 ± 2.96%. Further, the viability at 48 µM in the assay on SW620 cells [1] (setting [5]) is 6.31 ± 0.74%. In addition, in the assay on SW620 cells [1] (setting [6]), the viability at 3 µM is 59.2 ± 2.77%, the viability at 6 µM is 43.4 ± 0.48%, the viability at 12 µM was 17.8 ± 0.3% and the viability at 24 µM stood at 8.13 ± 1.48%. Further, the viability at 48 µM with SW620 cells [1] (setting [6]) stood at 0.26 ± 0.07%. Further, in the assay with SW620 cells [1] (setting [7]), the viability at 3 µM is 46.55 ± 0.03%, the viability at 6 µM was 38.53 ± 0.28%, the viability at 12 µM turned out to be 5.53 ± 0.11% and the viability at 24 µM stood at 3.93 ± 0.59%. In addition, the viability at 48 µM in the assay with SW620 cells [1] (setting [7]) is 0%. The “Cell cycle distribution Sub G0/G1” value in the assay with SW620 cells [2] is recorded as 20.60%. Also, the “plasma membrane integrity (PI positive staining)” value in the assay on SW480 cells is listed as “induced plasma membrane disintegration”. Further, in the assay with SW620 cells [3], the “plasma membrane integrity (PI positive staining)” value is given as “induced plasma membrane disintegration”.
